From US20250304571A1, “BIOLOGICALLY ACTIVE COMPOUNDS AND METHODS THEREOF” (Suzhou Keen Therapeutics Co., Ltd., priority 2022, published 2025)
Like-named read-outs stand apart in the source and are kept apart here.

Test system: 786-O (renal cell carcinoma) cells
Test: Cell viability (CellTiter Glo) assay, inhibition of 786-O cell proliferation
Type: cell-based
Conditions: 786-O cells, 72 hours, CellTiter Glo, read-out: IC50, inhibition of 786-O cell proliferation

| IC50 (Homo sapiens, 786-0) [nM] | IC50 [nM] | SMILES |
| --- | --- | --- |
| < 100 |  | CC1(C)C(=O)N(c2ccc(N3CCCCC3)cc2)c2nc(COC(=N)N3CCC[C@@H]3C(F)(F)F)nc(NCC(F)(F)F)c21 [Compound E49] |
| < 100 |  | C[C@@H]1CN(c2ccc(N3C(=O)C(C)(C)c4c(NCC(F)(F)F)nc(COC(=N)N5CCC[C@@H]5C(F)(F)F)nc43)cc2F)C[C@H](C)O1 [Compound E50] |
| < 100 |  | CC1(C)C(=O)N(c2cc(F)c3c(c2)CCCO3)c2nc(COC(=N)N3CCC[C@@H]3C(F)(F)F)nc(NCC(F)(F)F)c21 [Compound E51] |
| 100 to 500 |  | CC1(C)C(=O)N(c2ccc(N3CCOCC3)cc2)c2nc(COC(=N)N3CC(F)C[C@H]3C(F)(F)F)nc(N)c21 (stereo partly shown) [Compound E52] |
| < 100 |  | N=C(OCc1nc(NC2CC2)c2c(n1)N(c1ccc(N3CCOCC3)cc1)C(=O)C21CCCC1)N1CCC[C@@H]1C(F)(F)F [Compound E53, (4′-(cyclopropylamino)-7′-(4-morpholinophenyl)-6′-oxo-6′,7′-dihydrospiro[cyclopentane-1,5′-pyrrolo[2,3-d]pyrimidin]-2′-yl)methyl (R)-2-(trifluoromethyl)pyrrolidine-1-carbimidate] |
| < 100 |  | CN(C)c1nc(COC(=N)N2CCC[C@@H]2C(F)(F)F)nc2c1C(C)(C)C(=O)N2c1ccc(N2CCOCC2)cc1 [Compound E54] |
| < 100 |  | N=C(OCc1nc(NC2CC2)c2c(n1)N(c1cc(F)c3c(c1)CCO3)C(=O)C21CCCCC1)N1CCC[C@@H]1C(F)(F)F [Compound E55] |
| < 100 |  | C=CCNc1nc(COC(=N)N2CCC[C@@H]2C(F)(F)F)nc2c1C(C)(C)C(=O)N2c1ccc(N2CCOCC2)cc1 [Compound E56] |
| < 100 |  | N=C(OCc1ncc2c(n1)N(c1ccc(N3CCOCC3)cc1)C(=O)C21CCCCC1)N1CCC[C@@H]1C(F)(F)F [Compound E58] |
| < 100 |  | CC1(C)C(=O)N(c2cnc(N3CCC(F)(F)CC3)nc2)c2nc(COC(=N)N3CCC[C@@H]3C(F)(F)F)nc(NC3CC3)c21 [Compound E59] |
| < 100 |  | N=C(OCc1nc(NCC(F)(F)F)c2c(n1)N(c1cc(F)c3c(c1)CCO3)C(=O)C21CCCC1)N1CCC[C@@H]1C(F)(F)F [Compound E61] |
| < 100 |  | N=C(OCc1nc(N)c2c(n1)N(c1cnc(C3CC3)nc1)C(=O)C21CCCC1)N1CCC[C@@H]1C(F)(F)F [Compound E63] |
| < 100 |  | CC1(C)C(=O)N(c2cc(F)c3c(c2)CCO3)c2nc(COC(=N)N3CCC[C@@H]3C(F)(F)F)nc(N)c21 [Compound E65] |
|  | < 100 | CC1(C)C(=O)N(c2ccc3c(c2)C2(CCO3)CC2)c2nc(COC(=N)N3CCC[C@@H]3C(F)(F)F)nc(NCC(F)(F)F)c21 [Compound E66] |
| < 100 |  | CNc1nc(COC(=N)N2CCC[C@@H]2C(F)(F)F)nc2c1C(C)(C)C(=O)N2c1cnc2c(C(C)C)cnn2c1 [Compound E67] |
| < 100 |  | CNc1nc(COC(=N)N2CCC[C@@H]2C(F)(F)F)nc2c1C(C)(C)C(=O)N2c1ccc2c(c1)CCO2 [Compound E68] |
| < 100 |  | CNc1nc(COC(=N)N2CCC[C@@H]2C(F)(F)F)nc2c1C(C)(C)C(=O)N2c1ccc(N2C[C@@H](C)O[C@@H](C)C2)nc1 [Compound E69] |
| < 100 |  | CC1(C)C(=O)N(c2ccc(N3CCC4(CC3)CC4)nc2)c2nc(COC(=N)N3CCC[C@@H]3C(F)(F)F)nc(N)c21 [Compound E70] |
| < 100 |  | N=C(OCc1nc(NC2CC2)c2c(n1)N(c1ccc(N3CCOCC3)cc1)C(=O)C21CCCCC1)N1CCC[C@@H]1C(F)(F)F [Compound E71] |
| < 100 |  | N=C(OCc1ncc2c(n1)N(c1ccc(N3CCOCC3)cc1)C(=O)C21CCCC1)N1CCC[C@@H]1C(F)(F)F [Compound E72] |
| < 100 |  | N=C(OCc1nc(NC2CC2)c2c(n1)N(c1ccc(N3CCOCC3)c(F)c1)C(=O)C21CCCCC1)N1CCC[C@@H]1C(F)(F)F [Compound E73] |
| 100 to 500 |  | CC1(C)C(=O)N(c2ccc(N3CCOCC3)cc2)c2nc(COC(=N)N3CCC[C@@H]3C(F)(F)F)nc(N3CC(F)(F)C3)c21 [Compound E74] |
| < 100 |  | CCN(CC)c1ncc(N2C(=O)C3(CCCC3)c3c(N)nc(COC(=N)N4CCC[C@@H]4C(F)(F)F)nc32)cn1 [Compound E75] |
| 100 to 500 |  | CCN(CC)c1ncc(N2C(=O)C3(CCCC3)c3c(NC(C)C)nc(COC(=N)N4CCC[C@@H]4C(F)(F)F)nc32)cn1 [Compound E76] |
| < 100 |  | COc1cc(N2CCOCC2)ccc1N1CC(C)(C)c2c(N)nc(COC(=N)N3CCC[C@@H]3C(F)(F)F)nc21 [Compound E77] |
| < 100 |  | N=C(OCc1nc(N)c2c(n1)N(c1cnc(N3CCOCC3)nc1)C(=O)C21CCCC1)N1CCC[C@@H]1C(F)(F)F [Compound E78] |
| 100 to 500 |  | CC(C)Nc1nc(COC(=N)N2CCC[C@@H]2C(F)(F)F)nc2c1C1(CCCC1)C(=O)N2c1cnc(N2CCOCC2)nc1 [Compound E79] |
| < 100 |  | CNc1nc(COC(=N)N2CCC[C@@H]2C(F)(F)F)nc2c1C1(CCCC1)C(=O)N2c1cnc(N2CCOCC2)nc1 [Compound E80] |

| IC50 (Homo sapiens, 786-0) [nM] | IC50 [nM] | SMILES |
| --- | --- | --- |
| < 100 |  | CC(C)Nc1nc(COC(=N)N2CCC[C@@H]2C(F)(F)F)nc2c1C1(CCCC1)C(=O)N2c1cnc(N2CCC(F)(F)C2)nc1 [Compound E81] |
| < 100 |  | N=C(OCc1nc(N)c2c(n1)N(c1cnc(N3CCC(F)(F)C3)nc1)C(=O)C21CCCC1)N1CCC[C@@H]1C(F)(F)F [Compound E82] |
| < 100 |  | CNc1nc(COC(=N)N2CCC[C@@H]2C(F)(F)F)nc2c1C1(CCCC1)C(=O)N2c1cnc(N2CCC(F)(F)C2)nc1 [Compound E83] |
| < 100 |  | N=C(OCc1nc(N)c2c(n1)N(c1cnc(N3CCC(F)(F)CC3)nc1)C(=O)C21CCCC1)N1CCC[C@@H]1C(F)(F)F [Compound E84] |
| < 100 |  | N=C(OCc1nc(N)c2c(n1)N(c1cnc(N3CC(F)(F)C3)nc1)C(=O)C21CCCC1)N1CCC[C@@H]1C(F)(F)F [Compound E85] |
| < 100 |  | CNc1nc(COC(=N)N2CCC[C@@H]2C(F)(F)F)nc2c1C1(CCCC1)C(=O)N2c1cnc(N2CC(F)(F)C2)nc1 [Compound E86] |
| 500 to 5000 |  | CC1(C)C(=O)N(c2cnc(C3CCOCC3)nc2)c2nc(COC(=N)N3CCC[C@@H]3C(F)(F)F)nc(NC3CCC3)c21 [Compound E89] |
| 100 to 500 |  | N=C(OCc1nc(N)c2c(n1)N(c1cnc(C(F)(F)F)nc1)C(=O)C21CCCC1)N1CCC[C@@H]1C(F)(F)F [Compound E90] |
| < 100 |  | N=C(OCc1nc(NC2CCC2)c2c(n1)N(c1ccc(N3CCOCC3)cc1)C(=O)C21CCCC1)N1CCC[C@@H]1C(F)(F)F [Compound E91] |
| 100 to 500 |  | C[C@@H]1CN(c2ncc(N3C(=O)C4(CCCC4)c4c(NC5CCC5)nc(COC(=N)N5CCC[C@@H]5C(F)(F)F)nc43)cn2)C[C@H](C)O1 [Compound E92, [4′-(cyclobutylamino)-7′-{2-[(2R,6S)-2,6-dimethylmorpholin-4-yl]pyrimidin-5-yl}-6′-oxo-6′,7′-dihydrospiro[cyclopentane-1,5′-pyrrolo[2,3-d]pyrimidin]-2′-yl]methyl (2R)-2-(trifluoromethyl)pyrrolidine-1-carboximidate] |
| < 100 |  | CNc1nc(COC(=N)N2CCC[C@@H]2C(F)(F)F)nc2c1C1(CCCC1)C(=O)N2c1cnc(C2=CCOCC2)nc1 [Compound E95] |
| 100 to 500 |  | CNc1nc(COC(=N)N2CCC[C@@H]2C(F)(F)F)nc2c1C1(CCCC1)C(=O)N2c1cnc(N2CC3CC2CO3)nc1 (stereo partly drawn) [Compound E96, (7′-(2-(2-oxa-5-azabicyclo[2.2.1]heptan-5-yl)pyrimidin-5-yl)-4′-(methylamino)-6′-oxo-6′,7′-dihydrospiro[cyclopentane-1,5′-pyrrolo[2,3-d]pyrimidin]-2′-yl)methyl (2R)-2-(trifluoromethyl)pyrrolidine-1-carbimidate] |
| 500 to 5000 |  | N=C(OCc1nc(N)c2c(n1)N(c1cnc(N3CC4CC3CO4)nc1)C(=O)C21CCCC1)N1CCC[C@@H]1C(F)(F)F (stereo partly shown) [Compound E98] |
| 500 to 5000 |  | CC1(C)CC(c2ncc(N3C(=O)C4(CCCC4)c4c(N)nc(COC(=N)N5CCOCC5C(F)(F)F)nc43)cn2)CC(C)(C)O1 (stereo not shown) [Compound E101] |
| 100 to 500 |  | CNc1nc(COC(=N)N2CCC[C@@H]2C(F)(F)F)nc2c1C1(CCCC1)C(=O)N2c1cnc(C2CC(C)(C)OC(C)(C)C2)nc1 [Compound E102] |
| 100 to 500 |  | C[C@@H]1CN(c2ncc(N3C(=O)C4(CCCC4)c4c(N)nc(COC(=N)N5CCOC[C@H]5C(F)(F)F)nc43)cn2)C[C@H](C)O1 [Compound E104A] |
| < 100 |  | C[C@@H]1CN(c2ncc(N3C(=O)C4(CCCC4)c4c(N)nc(COC(=N)N5CCOC[C@@H]5C(F)(F)F)nc43)cn2)C[C@H](C)O1 [Compound E104B] |
| < 100 |  | C[C@@H]1CN(c2ncc(N3C(=O)C(C)(C)c4c(N)nc(COC(=N)N5CCC[C@@H]5C(F)(F)F)nc43)cn2)C[C@H](C)O1 [Compound E105] |
| < 100 |  | CNc1nc(COC(=N)N2CCC[C@@H]2C(F)(F)F)nc2c1C(C)(C)CN2c1ccc(N2CCOCC2)cc1OC [Compound E106] |
| < 100 |  | CNc1nc(COC(=N)N2CCC[C@H]2C(F)(F)F)nc2c1C(C)(C)CN2c1ccc(N2CCOCC2)cc1OC [Compound E107] |
| < 100 |  | CNc1nc(COC(=N)N2CCC[C@H]2C(F)(F)F)nc2c1C(C)(C)C(=O)N2c1ccc(N2CCOCC2)cc1 [Compound E108] |
| < 100 |  | CCN(CC(F)(F)F)C(=N)OCc1nc(NC)c2c(n1)N(c1ccc(N3CCOCC3)cc1)C(=O)C2(C)C [Compound E109] |
| < 100 |  | N=C(OCc1nc(NC2CC2)c2c(n1)N(c1cnc(N3CCOCC3)nc1)C(=O)C21CCCC1)N1CCC[C@@H]1C(F)(F)F [Compound E111] |
| < 100 |  | N=C(OCc1nc(NC2CC2)c2c(n1)N(c1cnc(N3CCC(F)(F)CC3)nc1)C(=O)C21CCCC1)N1CCC[C@@H]1C(F)(F)F [Compound E112] |
| < 100 |  | CNc1nc(COC(=N)N2CCCC2C(F)(F)F)nc2c1C(C)(C)C(=O)N2c1ccc(N2C[C@@H](C)O[C@@H](C)C2)nc1 (stereo partly shown) [Compound E113] |
| < 100 |  | CNc1nc(COC(=N)N2CCC[C@@H]2C(F)(F)F)nc2c1C(C)(C)C(=O)N2c1ccc(N2CCOCC2)cc1 [Compound E114] |
| 100 to 500 |  | CNc1nc(COC(=N)N2CC(F)(F)C[C@H]2C)nc2c1C(C)(C)C(=O)N2c1ccc(N2C[C@@H](C)O[C@@H](C)C2)nc1 [Compound E115] |
